Measurements as given in ChEMBL document CHEMBL3045705, “Thermal, kinetic, spectroscopic studies and anti-microbial, anti-tuberculosis, anti-oxidant properties of clioquinol and benzo-coumarin derivatives mixed complexes with copper ion” (2013).
≈ marks a conversion by molar mass, not a printed value.

Assays:
Format in all cases: functional
[1] = tested on: Bacillus subtilis; experiment: Antibacterial activity against Bacillus subtilis ATCC 11774 after 16 to 18 hr by Kirby-Bauer disk diffusion method
[2] = tested on: Candida albicans; experiment: Antifungal activity against Candida albicans ATCC 66027 after 16 to 18 hr by Kirby-Bauer disk diffusion method
[3] = tested on: Pseudomonas aeruginosa; experiment: Antibacterial activity against Pseudomonas aeruginosa ATCC 25619 after 16 to 18 hr by Kirby-Bauer disc diffusion method
[4] = tested on: Escherichia coli; experiment: Antibacterial activity against Escherichia coli ATCC 25922 after 16 to 18 hr by Kirby-Bauer disc diffusion method
[5] = tested on: Mycobacterium tuberculosis; experiment: Growth inhibition of Mycobacterium tuberculosis H37Rv MTCC 200 at MIC after 28 days by micro dilution anti-microbial susceptibility test
[6] = tested on: Streptococcus pyogenes; experiment: Antibacterial activity against Streptococcus pyogenes ATCC 12384 after 16 to 18 hr by Kirby-Bauer disc diffusion method
[7] = tested on: Aspergillus niger; experiment: Antifungal activity against Aspergillus niger ATCC 64958 after 16 to 18 hr by Kirby-Bauer disc diffusion method
[8] = tested on: Mycobacterium tuberculosis; experiment: Antitubercular activity against Mycobacterium tuberculosis H37Rv MTCC 200 after 28 days by micro dilution anti-microbial susceptibility test; details: H37Rv MTCC 200, 672 h

**Q.** For `O=C(/C=C/c1cccc(O)c1)c1cc2c(ccc3ccccc32)oc1=O`, which MIC [1] is on record?
**A.** Its MIC is 600 µg/mL (≈ 1750 µM).

**Q.** And the MIC [2]?
**A.** Its MIC is 200 µg/mL (≈ 584 µM).

**Q.** What about the MIC [3] of the same compound?
**A.** The MIC was 200 µg/mL (≈ 584 µM).

**Q.** What about the MIC [4] of the same compound?
**A.** Its MIC is 400 µg/mL (≈ 1170 µM).

**Q.** What about the “growth inhibition (GI)” value [5] of the same compound?
**A.** The value was 23%.

**Q.** What about the MIC [6] of the same compound?
**A.** The MIC was 200 µg/mL (≈ 584 µM).

**Q.** And the MIC [7]?
**A.** Its MIC is 200 µg/mL (≈ 584 µM).

**Q.** And the MIC [8]?
**A.** Its MIC is 100 µg/mL (≈ 292 µM).

**Q.** Which MIC [2] does the source give for `OC(Cn1cncn1)(Cn1cncn1)c1ccc(F)cc1F` [FLUCONAZOLE] here?
**A.** Its MIC is 10 µg/mL (≈ 32.7 µM).

**Q.** And the MIC [7]?
**A.** Its MIC is 10 µg/mL (≈ 32.7 µM).

**Q.** For `CCn1cc(C(=O)O)c(=O)c2cc(F)c(N3CCNCC3)cc21` [NORFLOXACIN], which MIC [1] is on record?
**A.** Its MIC is 10 µg/mL (≈ 31.3 µM).

**Q.** What about the MIC [3] of the same compound?
**A.** Its MIC is 10 µg/mL (≈ 31.3 µM).

**Q.** And the MIC [4]?
**A.** Its MIC is 10 µg/mL (≈ 31.3 µM).

**Q.** And the MIC [6]?
**A.** Its MIC is 10 µg/mL (≈ 31.3 µM).

**Q.** How did the MIC [1] turn out when `O=C(/C=C/c1ccc([N+](=O)[O-])cc1)c1cc2c(ccc3ccccc32)oc1=O` was run?
**A.** The MIC was 200 µg/mL (≈ 539 µM).

**Q.** What about the MIC [2] of the same compound?
**A.** The MIC was 200 µg/mL (≈ 539 µM).

**Q.** And the MIC [3]?
**A.** Its MIC is 200 µg/mL (≈ 539 µM).

**Q.** What about the MIC [4] of the same compound?
**A.** The MIC was 100 µg/mL (≈ 269 µM).

**Q.** What about the “growth inhibition (GI)” value [5] of the same compound?
**A.** The value was 54%.

**Q.** And the MIC [6]?
**A.** Its MIC is 100 µg/mL (≈ 269 µM).

**Q.** What about the MIC [7] of the same compound?
**A.** The MIC was 200 µg/mL (≈ 539 µM).

**Q.** And the MIC [8]?
**A.** Its MIC is 50 µg/mL (≈ 135 µM).

**Q.** For `O=C(/C=C/c1ccc(O)cc1)c1cc2c(ccc3ccccc32)oc1=O`, which MIC [1] is on record?
**A.** Its MIC is 400 µg/mL (≈ 1170 µM).

**Q.** And the MIC [2]?
**A.** Its MIC is 200 µg/mL (≈ 584 µM).

**Q.** What about the MIC [3] of the same compound?
**A.** The MIC was 200 µg/mL (≈ 584 µM).

**Q.** And the MIC [4]?
**A.** Its MIC is 200 µg/mL (≈ 584 µM).

**Q.** What about the “growth inhibition (GI)” value [5] of the same compound?
**A.** Its value is 46%.

**Q.** What about the MIC [6] of the same compound?
**A.** The MIC was 400 µg/mL (≈ 1170 µM).

**Q.** What about the MIC [7] of the same compound?
**A.** Its MIC is 400 µg/mL (≈ 1170 µM).

**Q.** And the MIC [8]?
**A.** Its MIC is 50 µg/mL (≈ 146 µM).

**Q.** Which MIC [2] does the source give for NYSTATIN here?
**A.** Its MIC is 100 µg/mL.

**Q.** And the MIC [7]?
**A.** Its MIC is 100 µg/mL.

**Q.** What does the source list for `O=C(/C=C/c1ccccc1)c1cc2c(ccc3ccccc32)oc1=O`?
**A.** MIC [1]: > 600 µg/mL; MIC [2]: 400 µg/mL (≈ 1230 µM); MIC [3]: 400 µg/mL (≈ 1230 µM); MIC [4]: 400 µg/mL (≈ 1230 µM); growth inhibition (GI) [5]: 18%; MIC [6]: 400 µg/mL (≈ 1230 µM); MIC [7]: 200 µg/mL (≈ 613 µM); MIC [8]: 100 µg/mL (≈ 306 µM)

**Q.** How did the “growth inhibition (GI)” value [5] turn out when `NNC(=O)c1ccncc1` [ISONIAZID] was run?
**A.** The value was 99%.

**Q.** What about the MIC [8] of the same compound?
**A.** Its MIC is 0.25 µg/mL (≈ 1.82 µM).

**Q.** `O=C(/C=C/c1ccccc1[N+](=O)[O-])c1cc2c(ccc3ccccc32)oc1=O` was tested. Which MIC [1] did it give?
**A.** Its MIC is 400 µg/mL (≈ 1080 µM).

**Q.** What about the MIC [2] of the same compound?
**A.** Its MIC is 400 µg/mL (≈ 1080 µM).

**Q.** What about the MIC [3] of the same compound?
**A.** The MIC was 400 µg/mL (≈ 1080 µM).

**Q.** And the MIC [4]?
**A.** The MIC was 200 µg/mL (≈ 539 µM).

**Q.** And the “growth inhibition (GI)” value [5]?
**A.** Its value is 37%.

**Q.** And the MIC [6]?
**A.** The MIC was 200 µg/mL (≈ 539 µM).

**Q.** What about the MIC [7] of the same compound?
**A.** Its MIC is 200 µg/mL (≈ 539 µM).

**Q.** And the MIC [8]?
**A.** The MIC was 50 µg/mL (≈ 135 µM).

**Q.** With `CC[C@@H](CO)NCCN[C@@H](CC)CO` [ETHAMBUTOL] as the compound, how does the “growth inhibition (GI)” value [5] read?
**A.** The value was 99%.

**Q.** What about the MIC [8] of the same compound?
**A.** The MIC was 3.12 µg/mL (≈ 15.3 µM).

**Q.** `O=C(/C=C/c1ccc(Cl)cc1)c1cc2c(ccc3ccccc32)oc1=O` was tested. Which MIC [1] did it give?
**A.** The MIC was 200 µg/mL (≈ 554 µM).

**Q.** What about the MIC [2] of the same compound?
**A.** The MIC was 200 µg/mL (≈ 554 µM).

**Q.** And the MIC [3]?
**A.** The MIC was 100 µg/mL (≈ 277 µM).

**Q.** And the MIC [4]?
**A.** Its MIC is 100 µg/mL (≈ 277 µM).

**Q.** What about the “growth inhibition (GI)” value [5] of the same compound?
**A.** The value was 88%.

**Q.** What about the MIC [6] of the same compound?
**A.** The MIC was 100 µg/mL (≈ 277 µM).

**Q.** What about the MIC [7] of the same compound?
**A.** Its MIC is 200 µg/mL (≈ 554 µM).

**Q.** What about the MIC [8] of the same compound?
**A.** The MIC was 12.5 µg/mL (≈ 34.6 µM).

**Q.** How did the MIC [1] turn out when `CC1(C)S[C@@H]2[C@H](NC(=O)[C@H](N)c3ccccc3)C(=O)N2[C@H]1C(=O)O` [AMPICILLIN] was run?
**A.** The MIC was 100 µg/mL (≈ 286 µM).

**Q.** And the MIC [3]?
**A.** Its MIC is 100 µg/mL (≈ 286 µM).

**Q.** And the MIC [4]?
**A.** The MIC was 100 µg/mL (≈ 286 µM).

**Q.** What about the MIC [6] of the same compound?
**A.** Its MIC is 100 µg/mL (≈ 286 µM).

**Q.** Which results are given for `CN[C@@H]1[C@H](O[C@H]2[C@H](O[C@H]3[C@H](O)[C@@H](O)[C@H](N=C(N)N)[C@@H](O)[C@@H]3N=C(N)N)O[C@@H](C)[C@]2(O)C=O)O[C@@H](CO)[C@H](O)[C@H]1O` [STREPTOMYCIN]?
**A.** growth inhibition (GI) [5]: 98%; MIC [8]: 6.25 µg/mL (≈ 10.7 µM)

**Q.** `O=C(O)c1cn(C2CC2)c2cc(N3CCNCC3)c(F)cc2c1=O` [CIPROFLOXACIN] was tested. Which MIC [1] did it give?
**A.** Its MIC is 5 µg/mL (≈ 15.1 µM).

**Q.** What about the MIC [3] of the same compound?
**A.** The MIC was 10 µg/mL (≈ 30.2 µM).

**Q.** And the MIC [4]?
**A.** The MIC was 20 µg/mL (≈ 60.4 µM).

**Q.** And the MIC [6]?
**A.** The MIC was 20 µg/mL (≈ 60.4 µM).
